Measured values as given in paper PMC12326382, “Discovery of a novel RSK2 inhibitor for the treatment of metastatic pancreatic cancer” (Journal of Enzyme Inhibition and Medicinal Chemistry, 2025).

Biological target: T1, RSK2 (Homo sapiens, UniProt P51812)
T1 construct: gene RPS6KA3
Assay: FRET kinase assay (Thermo Fisher LanthaScreen / Z'-LYTE)
Type: biochemical

T1 sequence (P51812 whole entry): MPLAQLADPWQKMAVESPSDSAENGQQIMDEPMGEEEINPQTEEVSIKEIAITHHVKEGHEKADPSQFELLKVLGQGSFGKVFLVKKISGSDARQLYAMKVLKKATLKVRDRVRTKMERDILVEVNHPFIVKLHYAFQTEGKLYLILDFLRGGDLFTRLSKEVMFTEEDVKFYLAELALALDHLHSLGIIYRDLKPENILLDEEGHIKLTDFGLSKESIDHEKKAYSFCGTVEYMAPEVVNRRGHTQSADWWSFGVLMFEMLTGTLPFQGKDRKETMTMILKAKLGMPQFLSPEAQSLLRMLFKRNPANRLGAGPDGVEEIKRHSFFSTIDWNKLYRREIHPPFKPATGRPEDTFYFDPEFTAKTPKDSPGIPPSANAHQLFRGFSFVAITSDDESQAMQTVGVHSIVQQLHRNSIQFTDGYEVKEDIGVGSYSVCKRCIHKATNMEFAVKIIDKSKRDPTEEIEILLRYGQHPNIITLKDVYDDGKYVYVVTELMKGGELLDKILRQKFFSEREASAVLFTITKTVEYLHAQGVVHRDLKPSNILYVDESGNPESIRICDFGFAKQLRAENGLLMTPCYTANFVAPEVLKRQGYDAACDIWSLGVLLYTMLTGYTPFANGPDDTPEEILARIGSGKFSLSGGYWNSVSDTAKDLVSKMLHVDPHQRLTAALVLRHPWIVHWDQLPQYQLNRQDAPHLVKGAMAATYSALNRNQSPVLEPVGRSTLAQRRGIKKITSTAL

IC50: 45.5 nM
Structure (SMILES): Cc1ccc2[nH]c(=O)c(-c3cnc(=O)[nH]n3)c(O)c2c1 [NSYSU-115]
